Experimental data reported in patent EP4389751A1, “HETEROCYCLIC COMPOUNDS AND USES THEREOF” (Kumquat Biosciences Inc., priority 2021, dated 2024).

Columns and labels:
GP2D cells = assay: Cell proliferation assay (CellTiter-Glo), K-Ras G12D cells; assay type: cell-based; conditions: GP2D cells (K-Ras G12D); read-out: Inhibition of GP2D Cells (IC50)
How it was run: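 GP2D (K-Ras G12D) cells seeded in DMEM with 2 mM glutamine and 10% FBS, then dosed next day with a dilution series (e.g., 9-point 3-fold). Viability read by CellTiter-Glo luminescence after about 5 days. IC50 from four-parameter fit.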

K-Ras G12S = target: T1, K-Ras G12S (Homo sapiens, UniProt P01116, G12S); assay: HTRF assay of the K-Ras / SOS1 interaction; assay type: biochemical; conditions: IC50 (against K-Ras G12D) to IC50 (against K-Ras G12S)
T1 construct: made in house; host or cells: E. coli (e.g., BL21 (DE3))
How it was run: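 GST-K-Ras G12S with anti-GST-Eu donor and His-hSOS1 with anti-6His-XL665 acceptor in ~5 mM HEPES pH 7.4, ~150 mM NaCl, 1 mM DTT, 0.05% BSA, 0.0025% Igepal. Read after ~10 min or longer; IC50 from 665/620 nm ratio, duplicates at 10 µM down to 0.01 µM.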

[1] = target: T2, KRAS protein (His-tagged GDP-loaded G12S 1-169) (Homo sapiens, UniProt P01116, G12S); assay: Covalent modification of KRAS protein, intact-protein LC-MS; assay type: binding; conditions: 24hrs at room temperature, KRAS protein ~2 µM
T2 construct: His-tagged GDP-loaded G12S 1-169
How it was run: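 His-tagged GDP-loaded KRAS 1-169 (~2 µM) incubated with compound 24 h at room temperature, then quenched with formic acid. Intact-protein LC-ESI-MS on C4 column; deconvoluted peak intensities of unmodified and adducted protein give percent covalent modification.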

Compound	IC50 (GP2D cells) [µM]	Ratio of IC50 KRAS G12D vs. IC50 KRAS G12S (K-Ras G12S)	% G12S Modification at 24 hr. [1]
Nc1nc2c(-c3c(Cl)cc4c(N5CCC56CCCN(C(=O)n5cncn5)CC6)nc(OC[C@@]56CCCN5C[C@H](F)C6)nc4c3F)ccc(F)c2s1 (stereo partly drawn) [Compound A209, (1-(7-(2-amino-7-fluorobenzo[d]thiazol-4-yl)-6-chloro-8-fluoro-2-(((2R,7aS)-2-fluorotetrahydro-1H-pyrrolizin-7a(5H)-yl)methoxy)quinazolin-4-yl)-1,7-diazaspiro[3.6]decan-7-yl)(1H-1,2,4-triazol-1-yl)methanone]	1 to 10	A (A: indicates that the ratio of IC50 against KrasG12D vs. IC50 against KrasG12S is 1-fold or greater)	++ (++ indicates between about 1%- 20% labelling)
Nc1nc2c(-c3c(Cl)cc4c(N5CCC6(CN(C(=O)n7cncn7)C6)C5)nc(OC[C@@]56CCCN5C[C@H](F)C6)nc4c3F)ccc(F)c2s1 [Compound A201, (6-(7-(2-amino-7-fluorobenzo[d]thiazol-4-yl)-6-chloro-8-fluoro-2-(((2R,7aS)-2-fluorotetrahydro-1H-pyrrolizin-7a(5H)-yl)methoxy)quinazolm-4-yl)-2,6-diazaspiro[3.4]octan-2-yl)(1H-1,2,4-triazol-1-yl)methanone]	1 to 10	A (A: indicates that the ratio of IC50 against KrasG12D vs. IC50 against KrasG12S is 1-fold or greater)	+++ (+++ indicates greater than 20% labelling)
Nc1nc2c(-c3c(Cl)cc4c(N5CC6CN(C(=O)n7cncn7)CC6C5)nc(OC[C@@]56CCCN5C[C@H](F)C6)nc4c3F)ccc(F)c2s1 (stereo partly drawn) [Compound A127, (5-(7-(2-amino-7-fluorobenzo[d]thiazol-4-yl)-6-chloro-8-fluoro-2-(((2R,7aS)-2-fluorotetrahydro-1H-pyrrolizin-7a(5H)-yl)methoxy)quinazolin-4-yl)hexahydropyrrolo[3,4-c]pyrrol-2(1H)-yl)(1H-1,2,4-triazol-1-yl)methanone]	1 to 10	A (A: indicates that the ratio of IC50 against KrasG12D vs. IC50 against KrasG12S is 1-fold or greater)	++ (++ indicates between about 1%- 20% labelling)
N#Cc1cnn(C(=O)N2CCN(c3nc(OC[C@@]45CCCN4C[C@H](F)C5)nc4c(F)c(-c5ccc(F)c6sc(N)nc56)c(Cl)cc34)CC2)c1 [Compound A252, 1-(4-(7-(2-amino-7-fluorobenzo[d]thiazol-4-yl)-6-chloro-8-fluoro-2-(((2R,7aS)-2-fluorotetrahydro-1H-pyrrolizin-7a(5H)-yl)methoxy)quinazolin-4-yl)piperazine-1-carbonyl)-1H-pyrazole-4-carbonitrile]	1 to 10	A (A: indicates that the ratio of IC50 against KrasG12D vs. IC50 against KrasG12S is 1-fold or greater)	+++ (+++ indicates greater than 20% labelling)
N#Cc1cnn(C(=O)N2CCN(c3nc(OC[C@@]45CCCN4C[C@H](F)C5)nc4c(F)c(-c5ccc(F)c6sc(N)nc56)c(Cl)cc34)CC(F)(F)C2)c1 [Compound A126, 1-(4-(7-(2-amino-7-fluorobenzo[d]thiazol-4-yl)-6-chloro-8-fluoro-2-(((2R,7aS)-2-fluorotetrahydro-1H-pyrrolizin-7a(5H)-yl)methoxy)quinazolin-4-yl)-6,6-difluoro-1,4-diazepane-1-carbonyl)-1Hpyrazole-4-carbonitrile]	1 to 10	A (A: indicates that the ratio of IC50 against KrasG12D vs. IC50 against KrasG12S is 1-fold or greater)	+++ (+++ indicates greater than 20% labelling)
N#Cc1c(N)sc2c(F)ccc(-c3c(Cl)cc4c(N5CCCC6(CCN(C(=O)n7cncn7)C6)C5)nc(OC[C@@]56CCCN5C[C@H](F)C6)nc4c3F)c12 (stereo partly drawn) [Compound A269, 4-(4-(2-(1H-1,2,4-triazole-1-carbonyl)-2,7-diazaspiro[4.5]decan-7-yl)-6-chloro-8-fluoro-2-(((2R,7aS)-2-fluorotetrahydro-1H-pyrrolizin-7a(5H)-yl)methoxy)quinazolin-7-yl)-2-amino-7-fluorobenzo[b]thiophene-3-carbonitrile]	1 to 10	A (A: indicates that the ratio of IC50 against KrasG12D vs. IC50 against KrasG12S is 1-fold or greater)	++ (++ indicates between about 1%- 20% labelling)
N#Cc1c(N)sc2c(F)ccc(-c3ncc4c(N5CC6CCC(C5)N6C(=O)n5ccnc5C#N)nc(OC[C@@]56CCCN5C[C@H](F)C6)nc4c3F)c12 [Compound A165, 1-(3-(7-(2-amino-3-cyano-7-fluorobenzo[b]thiophen-4-yl)-8-fluoro-2-(((2R,7aS)-2-fluorotetrahydro-1H-pyrrolizin-7a(5H)-yl)methoxy)pyrido[4,3-d]pyrimidin-4-yl)-3,8-diazabicyclo[3.2. 1]octane-8-carbonyl)-1H-imidazole-2-carbonitrile]	1 to 10	A (A: indicates that the ratio of IC50 against KrasG12D vs. IC50 against KrasG12S is 1-fold or greater)	++ (++ indicates between about 1%- 20% labelling)
Nc1nc2c(-c3c(Cl)cc4c(N5CC6(CCN(C(=O)n7cncn7)C6)C5)nc(OC[C@@]56CCCN5C[C@H](F)C6)nc4c3F)ccc(F)c2s1 [Compound A279, (2-(7-(2-amino-7-fluorobenzo[d]thiazol-4-yl)-6-chloro-8-fluoro-2-(((2R,7aS)-2-fluorotetrahydro-1H-pyrrolizin-7a(5H)-yl)methoxy)quinazolin-4-yl)-2,6-diazaspiro[3.4]octan-6-yl)(1H-1,2,4-triazol-1-yl)methanone]	1 to 10	A (A: indicates that the ratio of IC50 against KrasG12D vs. IC50 against KrasG12S is 1-fold or greater)	+++ (+++ indicates greater than 20% labelling)
